Test results: PMC11154005 (Science (New York, N.Y.), 2023)

Target: GerA complex (GerAA-GerAB-GerAC) (Bacillus subtilis, UniProt P07869)
Test: membrane depolarisation, DiSC3
Type: cell-based
Conditions: 50 mM L-alanine; 30 min after addition; agonist, recognised by GerAB subunit

Chain of GerA complex (GerAA-GerAB-GerAC) (P07869 whole entry): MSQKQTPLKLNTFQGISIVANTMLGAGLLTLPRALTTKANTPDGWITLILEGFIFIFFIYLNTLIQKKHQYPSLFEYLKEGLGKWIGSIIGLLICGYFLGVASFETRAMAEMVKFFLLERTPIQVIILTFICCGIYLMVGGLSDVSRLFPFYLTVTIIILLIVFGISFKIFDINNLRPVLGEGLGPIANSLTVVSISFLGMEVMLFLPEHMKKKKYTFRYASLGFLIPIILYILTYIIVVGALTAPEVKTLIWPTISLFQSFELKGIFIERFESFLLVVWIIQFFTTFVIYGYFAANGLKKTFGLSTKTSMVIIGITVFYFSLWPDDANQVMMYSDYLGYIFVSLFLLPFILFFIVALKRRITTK
Chain of GerA complex (GerAA-GerAB-GerAC) (P07870 18-373, further chain): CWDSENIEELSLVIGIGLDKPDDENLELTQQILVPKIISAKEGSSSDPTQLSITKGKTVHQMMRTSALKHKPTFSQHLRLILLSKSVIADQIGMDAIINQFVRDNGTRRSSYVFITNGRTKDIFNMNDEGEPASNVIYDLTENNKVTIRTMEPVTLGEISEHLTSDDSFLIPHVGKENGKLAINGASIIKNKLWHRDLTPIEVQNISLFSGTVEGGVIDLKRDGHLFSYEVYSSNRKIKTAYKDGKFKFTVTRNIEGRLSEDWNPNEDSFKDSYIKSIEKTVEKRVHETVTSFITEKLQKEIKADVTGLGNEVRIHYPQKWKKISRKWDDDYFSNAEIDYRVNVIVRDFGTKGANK
Chain of GerA complex (GerAA-GerAB-GerAC) (P07868 whole entry, further chain): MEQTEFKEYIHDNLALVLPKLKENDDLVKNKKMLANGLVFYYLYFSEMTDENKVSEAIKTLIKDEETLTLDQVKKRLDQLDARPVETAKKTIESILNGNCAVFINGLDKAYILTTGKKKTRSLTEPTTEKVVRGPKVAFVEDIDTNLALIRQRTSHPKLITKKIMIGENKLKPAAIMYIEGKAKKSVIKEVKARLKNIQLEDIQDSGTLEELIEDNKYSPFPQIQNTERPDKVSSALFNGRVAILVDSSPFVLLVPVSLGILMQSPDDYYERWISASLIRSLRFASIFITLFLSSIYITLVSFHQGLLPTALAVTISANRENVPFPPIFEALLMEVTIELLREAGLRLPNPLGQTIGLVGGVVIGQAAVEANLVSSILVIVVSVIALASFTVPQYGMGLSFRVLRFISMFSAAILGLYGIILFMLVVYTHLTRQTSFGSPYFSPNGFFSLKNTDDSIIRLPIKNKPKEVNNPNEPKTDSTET

C[C@H](N)C(=O)O [L-alanine]
% reduction in DiSC3(5) fluorescence at 50 mM: 30%
